# Measured values: ChEMBL document CHEMBL1201862, “PubChem BioAssay data set” (2004)
#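 Five concentrations, 48 hours, 96-well plates. GI50: concentration for 50% inhibition of growth.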 Calls of active or inactive are those of the source. Rule as the data show it: active = GI50 up to about 1.1 µM and inactive = higher.
# How the values were obtained:
# Assay in all cases: inhibition of tumour cell growth, NCI panel, 48 h
# [1] = tested on: BT-549
# [2] = tested on: Hs-578T
# [3] = tested on: T47D
# [4] = tested on: MDA-N
# [5] = tested on: DLD-1
# [6] = tested on: XF498
# [7] = tested on: DMS-273
# [8] = tested on: SNB-78
Compound,GI50 [1],GI50 [2],GI50 [3],GI50 [4],GI50 [5],GI50 [6],GI50 [7],GI50 [8]
CCOc1cc2c(cc1O)/C(=N\N)C[C@@H]1[C@@H]2CC[C@]2(C)[C@@H](O)CC[C@@H]12,4.26 µM (inactive),3.06 µM (inactive),8.32 µM (inactive),0.261 µM (active),,,,
O=C1c2ccccc2-c2ccc(O)cc21,,33.6 µM (inactive),18.4 µM (inactive),,,,,
CCOc1c(OC)cc(CNNc2nccs2)cc1OC,41.5 µM (inactive),> 100 µM (inactive),11.7 µM (inactive),> 100 µM (inactive),,,,
COC(=O)CP1(=O)OC2C(C3CCC2(C)C3(C)C)N1c1cc(C(F)(F)F)cc(C(F)(F)F)c1 (stereo not given),27.2 µM (inactive),,19.1 µM (inactive),,,,,
C=CCC1C2CCC(O[Si](C(C)C)(C(C)C)C(C)C)(C(C(=O)OC)C2)C1O (stereo not given),,23.6 µM (inactive),38.8 µM (inactive),> 100 µM (inactive),,,,
CC(=O)OCC1OC(O[C@@H]2C[C@H]3C(C)(C)[C@@H](OC(C)=O)CC[C@]3(C)[C@H]3CC[C@]45C[C@]4(CC[C@H]5[C@@H](C)C[C@@H](O)[C@H](O)C(C)(C)F)[C@@]32C)C(O)C(O)C1O (stereo not given in full),1.72 µM (inactive),1.84 µM (inactive),> 100 µM (inactive),1.63 µM (inactive),,,,
O=C(CN1CCCCC1)Nc1ccc2sc3ccccc3c(=O)c2n1,19.3 µM (inactive),18.8 µM (inactive),27.2 µM (inactive),13.4 µM (inactive),,,,
CN(Cc1cnc2c(N)nc(N)nc2n1)c1ccc(Cl)cc1,> 100 µM (inactive),33.9 µM (inactive),52.5 µM (inactive),> 100 µM (inactive),,,,
COc1cc(C2c3cc4c(cc3OC(NCc3ccccc3)C2C)OCO4)cc(OC)c1OC (stereo not given),0.631 µM (active),0.279 µM (active),,0.0973 µM (active),,,,
COc1ccc(/C=N/NC(=O)c2ccccc2Nc2ccccc2C(=O)N/N=C/c2ccc(OC)cc2)cc1,> 100 µM (inactive),,> 100 µM (inactive),> 100 µM (inactive),,,,
CC[C@@]1(O)C[C@H](OC2CC(N(C)C)C(O)C(C)O2)c2c(O)c3c(c(O)c2[C@H]1OC1CC(N(C)C)C(O)C(C)O1)C(=O)c1cccc(O)c1C3=O (stereo not given in full),0.041 µM (active),0.0577 µM (active),0.06 µM (active),0.0363 µM (active),,,,
COc1cc([N+](=O)[O-])c(S(=O)(=O)O)cc1N,> 100 µM (inactive),> 100 µM (inactive),> 100 µM (inactive),> 100 µM (inactive),,,,
Cn1nc2ccc3nccc(NCCNCCCl)c3c2n1,,,,,> 100 µM (inactive),> 100 µM (inactive),> 100 µM (inactive),
Brc1ccc2c(-c3csc(-c4c[nH]c5cc(Br)ccc45)n3)c[nH]c2c1,> 64.1 µM (inactive),23 µM (inactive),20.2 µM (inactive),5.43 µM (inactive),,,,
Nc1ccc(S(=O)(=O)Nc2nc3ccccc3nc2N2CCCCCC2)cc1,7.23 µM (inactive),37.2 µM (inactive),22.9 µM (inactive),32.5 µM (inactive),,,,
NC1=NS(=O)(=O)Nc2nc(-c3ccc([N+](=O)[O-])o3)[nH]c21,,,,,15.8 µM (inactive),,21.4 µM (inactive),
COc1cc(C(=O)C2C(=O)c3ccccc3C2C2(O)c3ccccc3CC2C(O)c2cc(OC)c(OC)c(OC)c2)cc(OC)c1OC (stereo not given),> 100 µM (inactive),> 100 µM (inactive),> 100 µM (inactive),> 100 µM (inactive),,,,
Nc1n[n+](-c2ccccc2)no1,,,,,5.7 µM (inactive),,33.2 µM (inactive),> 100 µM (inactive)
CC(=O)O[C@H]1CN(S(=O)(=O)c2ccc(C)cc2)C[C@@H]1C1CCCCC1,,18.9 µM (inactive),40.6 µM (inactive),25.5 µM (inactive),,,,
CCN1CCC(O)(c2ccc([N+](=O)[O-])cc2)C(C(=O)c2ccc([N+](=O)[O-])cc2)C1 (stereo not given),16.9 µM (inactive),23.2 µM (inactive),23.3 µM (inactive),20.8 µM (inactive),,,,
CSc1nn(C)cc2ncnc1-2,> 100 µM (inactive),> 100 µM (inactive),> 100 µM (inactive),> 100 µM (inactive),,,,
Nc1ccc(S(=O)(=O)c2ccc(NC(=O)c3cccnc3)cc2)cc1,92 µM (inactive),80.9 µM (inactive),36.8 µM (inactive),> 100 µM (inactive),,,,
Nc1ccc(-c2ncc3cc(-c4cccc(-c5cc6cnc(-c7ccc(N)cc7)nc6c6ccccc56)c4)c4ccccc4c3n2)cc1,> 100 µM (inactive),> 100 µM (inactive),> 100 µM (inactive),> 100 µM (inactive),,,,
CC(C)(C)c1cc(S(=O)(=O)O)c2oc(-c3ccccc3)cc(=O)c2c1,> 100 µM (inactive),> 100 µM (inactive),84.9 µM (inactive),> 100 µM (inactive),,,,
Cn1cnc(N2CCCC2)c(C#N)c1=S,,> 100 µM (inactive),> 100 µM (inactive),> 100 µM (inactive),,,,
Cc1noc(/N=C2\C=C(O)C(=O)c3ccccc32)c1C,1.05 µM (active),2.24 µM (inactive),33.3 µM (inactive),0.173 µM (active),,,,
NCCCn1c2ccccc2c2c3c(c4c(c21)CCC(O)CC4)C(=O)NC3=O (stereo not given),4.81 µM (inactive),3.13 µM (inactive),,,,,,
C1=Cc2cccc3occ(c23)C=C1,39.9 µM (inactive),22.1 µM (inactive),68.7 µM (inactive),> 100 µM (inactive),,,,

Compound,GI50 [1],GI50 [2],GI50 [3],GI50 [4],GI50 [5],GI50 [6],GI50 [7],GI50 [8]
O=S1(=O)OCCOS(=O)(=O)C1Cl,,,,,> 100 µM (inactive),,> 100 µM (inactive),> 100 µM (inactive)
CCCC/C(C)=N/NC(N)=S,,,,,> 100 µM (inactive),,,> 100 µM (inactive)
CCOC(=O)n1c2ccccc2c2c(O)c(OC)c3c(c21)C(=O)NC3=O,> 100 µM (inactive),59.4 µM (inactive),95.1 µM (inactive),> 100 µM (inactive),,,,
C1=CC=C2NCCSCC/N=C3/C=CC=CC=C3NCCSCC/N=C\2C=C1,,,,,> 100 µM (inactive),,> 100 µM (inactive),> 100 µM (inactive)
CCOC(=O)[C@@]12CCC(C1=O)[C@](C)(O)C[C@@H]2c1ccccc1,58.5 µM (inactive),22.6 µM (inactive),39 µM (inactive),3.86 µM (inactive),,,,
COc1ccc(/C(=N/O)C(c2ccc(OC)cc2)C2C(=O)Oc3ccccc32)cc1 (stereo not given),,,,,83.4 µM (inactive),,,> 100 µM (inactive)
COc1ccc2[nH]c3c4c(ccc3c2c1)C(=O)C=CC4=O,27.8 µM (inactive),24.3 µM (inactive),2.64 µM (inactive),16.2 µM (inactive),2.54 µM (inactive),,16.2 µM (inactive),16.3 µM (inactive)
NS(=O)(=O)c1ccc(NC2(C(=O)O)CCCC2)cc1,> 100 µM (inactive),> 100 µM (inactive),> 100 µM (inactive),> 100 µM (inactive),,,,
COc1cc(/C=C2\C[C@H]3[C@@H]4CC=C5C[C@@H](O)CC[C@]5(C)[C@H]4CC[C@]3(C)[C@H]2O)cc(OC)c1OC,15.4 µM (inactive),19.9 µM (inactive),3.48 µM (inactive),21.9 µM (inactive),,,,
CCCC(=O)Oc1cc(OC(=O)CCC)c2c(C)cc(=O)oc2c1,,48.4 µM (inactive),,62.2 µM (inactive),,,,
O=C1CCCN1C(=O)CS(=O)(=O)c1ccccc1,> 100 µM (inactive),> 100 µM (inactive),> 100 µM (inactive),> 100 µM (inactive),,,,
COC(=O)CC(C(C(=O)OCc1ccccc1)C(C)O)N1C(=O)OCC1c1ccccc1 (stereo not given),,,,,60.4 µM (inactive),24.1 µM (inactive),66.1 µM (inactive),
N/C(=N\N=C\c1cc2ccccc2s1)c1cnccn1,> 100 µM (inactive),> 100 µM (inactive),8.93 µM (inactive),> 100 µM (inactive),,,,
COc1cc2cc(C(=O)N3CC(CCl)c4c3cc(NC(=O)OCc3ccc([N+](=O)[O-])cc3)c3ccccc43)[nH]c2c(OC)c1OC (stereo not given),97.3 µM (inactive),> 53.1 µM (inactive),24.3 µM (inactive),> 100 µM (inactive),,,,
Cc1cccc(C)c1NC(=O)/C(Cc1nc2ccc([N+](=O)[O-])cc2nc1O)=N\NC(N)=O,7.19 µM (inactive),> 100 µM (inactive),> 100 µM (inactive),,,,,
c1ccc2cc(-c3cc(-c4cc(-c5ccc6ccccc6c5)on4)no3)ccc2c1,> 100 µM (inactive),53.6 µM (inactive),> 100 µM (inactive),> 100 µM (inactive),,,,
COc1cc(C=O)ccc1Oc1nnnn1-c1ccccc1,66.2 µM (inactive),48.6 µM (inactive),16.5 µM (inactive),37.8 µM (inactive),,,,
O=C1C(c2ccccc2)=[N+]([O-])c2cc([N+](=O)[O-])ccc21,,,,,21.6 µM (inactive),24 µM (inactive),,
O=C1CC(c2ccsc2)n2cccc21 (stereo not given),,> 100 µM (inactive),> 100 µM (inactive),,,,,
CSC(=S)N/N=C(\C)c1cccc(C)n1,5.19 µM (inactive),6.14 µM (inactive),2.46 µM (inactive),0.925 µM (active),,,,
O=C(CCC1OCCO1)Nc1cc(NCc2ccccc2)ccc1OCc1ccccc1,38.5 µM (inactive),34.3 µM (inactive),69.5 µM (inactive),,,,,
Cc1cn(C2CC(O)C(COC(=O)NCCC(F)(F)C(F)(F)C(F)(F)C(F)(F)F)O2)c(=O)[nH]c1=O (stereo not given),> 100 µM (inactive),80.5 µM (inactive),> 100 µM (inactive),86.3 µM (inactive),,,,
Cc1nccn1S(=O)(=O)c1ccc(Cl)cc1,74.5 µM (inactive),44.9 µM (inactive),38 µM (inactive),22.2 µM (inactive),,,,
CC(C)[Si](OC1=C(C(=O)N(C)c2cccc(Cl)c2)CCCC1)(C(C)C)C(C)C,,12.5 µM (inactive),2.91 µM (inactive),17.4 µM (inactive),,,,
N#Cc1cnn2ccn(C3OC(COC(=O)c4ccccc4)C(OC(=O)c4ccccc4)C3OC(=O)c3ccccc3)c12 (stereo not given),> 100 µM (inactive),13.2 µM (inactive),19.1 µM (inactive),> 21.5 µM (inactive),,,,
NC(=O)CC(N)C(=O)NC(Cc1ccccc1)C(=O)NC(Cc1ccccc1)NC(=O)C(Cc1c[nH]c2ccccc12)C(=O)O (stereo not given),,> 100 µM (inactive),> 100 µM (inactive),,,,,
O=C1Nc2c(Cl)cccc2/C1=N/Nc1ccccc1[N+](=O)[O-],28 µM (inactive),7.87 µM (inactive),22.2 µM (inactive),25.6 µM (inactive),,,,
